According to patent US20230285493A1, “ANTIMICROBIAL COMPOSITION” (Mootral SA, priority 2014, published 2023):

Columns and labels:
Assay in all cases: modified broth dilution assay, 96-well plates (MIC)
Assay type in all cases: cell-based
Staphylococcus aureus = conditions: overnight 37.0° C., absorbance 600 nm
Protocol: (§1) In order to determine the minimal inhibitory concentration (MIC) for the bioflavonoids (BC), allicin (AL) and ajoene (AJ) on selected Gram-positive bacteria, Gram-negative bacteria and yeast, a modified broth dilution assay using 96-well plates, according to Wiegand, Hilpert and Hancock (2008), was performed.
(§2) The microorganisms for the study were obtained from Cardiff University. The cultures used in the study were prepared by aseptic inoculation of microorganisms from pure plate cultures into 50 ml of sterile nutrient broth. The cultures were incubated overnight at 37.0° C. without agitation. Prior to use the cultures were washed by centrifugation in a desk top centrifuge at 3000 RPM for 15 minutes and the pellet resuspended in sterile saline (0.85% NaCl).
(§3) In order to determine the activity of the compounds both individually as well as in combination, a range of concentrations of each compound was used in a doubling dilution. The highest concentration used was dependent on the organism in question (whether Gram-positive bacteria, Gram-negative bacteria or yeast). From the highest concentration used in the test the samples were diluted five times in order to give six different concentrations per compound.
(§4) The allicin samples were aqueous solutions and were therefore diluted directly using H2O. However, the ajoene was in oil form and the bioflavonoids were in powder form, neither of which were water soluble. Before dilution the ajoene and bioflavonoids were solubilised by creation of a stock solution using 80% DMSO.
(§5) The wells on the 96-well plates were prepared in triplicate as follows: the AL, AJ and BC were pre-diluted in Eppendorf tubes at 10× the required final concentration. 20 μl of each dilution was added per well to give a 1:10 dilution in the final 200 μl per well. A matrix of concentrations of mixtures of allicin:bioflavonoid, ajoene:bioflavonoid and allicin:ajoene:bioflavonoid was used, with the dilution gradients of allicin and ajoene running inversely to bioflavonoids.
(§6) 130 μl of sterile nutrient broth (Nutrient Broth No. 3 (Sigma 70149)) was added to each well.
(§7) 50 μl of each microorganism suspended in saline was added to each well (except for the negative control). Each species of microorganism was added to two plates, the first for the individual (control) assays and the second for the matrix study. The plates were incubated at 37.0° C. overnight without agitation.
(§8) The plates were scanned individually using a Tecan plate reader at 600 nm and the absorbance recorded in a comma-delimited file for analysis.
(§9) The absorbance for each sample was compared to the growth (absorbance) of the control cultures (without treatment) in order to determine the MIC (all values blanked against negative control to negate absorbance of plate and broth). The mean and standard deviation of the triplicate experiments were determined and the means plotted on scatter diagrams for comparison.

Bacillus subtilis = conditions: overnight 37.0° C., absorbance 600 nm
Protocol: as §1, §2, §3, §4, §5, §6, §7, §8, §9

Candida tropicalis = conditions: overnight 37.0° C., absorbance 600 nm
Protocol: as §1, §2, §3, §4, §5, §6, §7, §8, §9

Escherichia coli = conditions: overnight 37.0° C., absorbance 600 nm
Protocol: as §1, §2, §3, §4, §5, §6, §7, §8, §9

Klebsiella pneumonia = conditions: Klebsiella pneumoniae, overnight 37.0° C., absorbance 600 nm
Protocol: as §1, §2, §3, §4, §5, §6, §7, §8, §9

Pseudomonas aeruginosa = conditions: overnight 37.0° C., absorbance 600 nm
Protocol: as §1, §2, §3, §4, §5, §6, §7, §8, §9

MIC (Staphylococcus aureus) [mg/L] | MIC (Bacillus subtilis) [mg/L] | MIC (Candida tropicalis) [mg/L] | MIC (Escherichia coli) [mg/L] | MIC (Klebsiella pneumonia) [mg/L] | MIC (Pseudomonas aeruginosa) [mg/L] | Structure (SMILES)
27.6 | 9.2 | 9.2 | 18.4 | 46 | 9.2 | C=CCS[S+]([O-])CC=C (stereo not drawn) [Allicin, 2-Propene-1-sulfinothioic acid S-2-propenyl]
48 | 24 | 24 | 24 | 12 | 12 | C=CCSSC=CC[S+]([O-])CC=C (mixture of isomers) [Ajoene, (E,Z)-4,5,9-trithiadodeca-1,6,11-triene 9-oxide]
